# Measurements reported in patent US20260224559A1, “FORMULATIONS FOR TREATING CANCER” (FOGHORN THERAPEUTICS INC., priority 2023, published 2026).
# Key:
# [1] = Particle size analysis of Compound A nanosuspension / microsuspension formulations; format: physicochemical; details: jet mill feed pressure 4.5 bar, milling pressure 5.0 bar, before ball milling
# Method: Milling was performed in a high energy ball mill with suitable sized-spherical, polymeric or Zirconium oxide beads. Compound A and excipient(s) as indicated in Table 1 were combined in deionized water per the indicated batch size and transferred to the milling chamber. Nanosuspensions A through D were generated utilizing process conditions denoted in Table 2.
# Compound A was first mechanically jet-milled to reduce initial particle size prior to ball milling. The jet mill feed pressure was 4.5 bar and milling pressure was 5.0 bar. The resulting particle size of jet milled Compound A was 5-6 microns […]. […]
# Compound A in a concentration range of between about 20 mg/mL to about 100 mg/mL (2-10% w/w), along with parenteral grade olive oil and 1% sorbitan monooleate [SPAN®80], was nano-milled using a high energy mill at 3000 rpm with 0.3 mm beads or 0.65 mm beads to produce microsuspensions. […] Performance of an amorphous microsuspension of Compound A was evaluated in Male SD rats. […] At each time point, approximately 0.2 mL blood was collected via jugular vein and analyzed by LC-MS/MS for mean plasma concentration of Compound A (FIG. 4). Pharmacokinetics determined that a target Cmin of 3 ng/mL was desired, which is denoted by the black dashed line in FIG. 4. […]
# [2] = Body weight / tolerability in mouse efficacy study; format: in vivo; details: tumor-bearing mice, all doses and all modes of administration, 4 weeks, FIG. 3A
# Method: (§1) Each mouse was inoculated subcutaneously on the right flank with a single cell suspension of SYO-1 human biphasic synovial sarcoma tumor cells (5×10^6) in 100 μL DMEM with 10% FBS for the tumor development. Treatment (Table 6) was started when mean tumor volume reached about 100-150 mm^3 for the efficacy cohorts. Based on the tumor volume, mice were randomly assigned to respective groups using a computer-generated randomization procedure. Corresponding formulations are in Table 6. For each dosing cohort, dosing volume was calculated based on concentration of the formulation and dose volume (ml/kg). Vehicle for IV was 20% HP-β-CD in 5 mM citrate buffer of pH 3, with adjustment to a final PH of 5. Body weight of all animals was measured and recorded twice a week throughout the study. The measurement of tumor size was conducted twice a week with a caliper and recorded. Tumor volume was used for calculation of tumor growth inhibition (TGI) value of the tumors in the treated and the control cohorts, respectively, on a given day after tumor inoculation.
# [3] = system: SYO-1 human biphasic synovial sarcoma tumor cells; experiment: Nanosuspension mouse efficacy study, SYO-1 xenograft tumor volume; format: in vivo; details: SYO-1 xenograft mice, Cohorts 2-8, IV, SC, IM, 1-200 mg/kg, over 4 weeks, FIG. 3B
# Method: as §1
# 64 plasma samples were collected at two time points (672 h and 676 h) from efficacy study cohorts. 64 tumor samples were collected at two time points (672 h and 676 h) from efficacy cohorts 1-8 and cut into 3 pieces: one piece for PK analysis, one piece for WB analysis (BRD9), and one piece snap frozen for further analysis (n=4). […]
smiles,measurement,setting,value
"COc1cc(-c2cn(C)c(=O)c3cnc(N4CCC4)cc23)cc(OC)c1CN1CCC(CN2CCC3(CC2)CN(c2ccc4c(c2)C(=O)N(C2CCC(=O)NC2=O)C4)C3)CC1 (stereo not drawn) [Compound A, 3-(6-(7-((1-(4-(6-(azetidin-1-yl)-2-methyl-1-oxo-1,2-dihydro-2,7-naphthyridin-4-yl)-2,6-dimethoxybenzyl)piperidin-4-yl)methyl)-2,7-diazaspiro[3.5]nonan-2-yl)-1-oxoisoindolin-2-yl)piperidine-2,6-dione]",particle size (D50) of jet milled Compound A,[1],5-6 microns
same,body weight,[2],remaining fairly constant
same,tumor growth (tumor volume) versus Vehicle control,[3],slowed tumor growth significantly
